The values that follow are results of earlier work, collected in patent US4698328A, “Method of increasing bone mass” (The General Hospital Corporation, priority 1986, dated 1987).

The conditions of the data set: osteoporosis in humans; Reeve et al. 1980.

On to “hPTH (1-34): fragment of human parathyroid hormone: first thirty-four amino acid residues (SVSEIQLMHNLGKHLNSMERVEWLRKKLQDVHNF; Parathyroid hormone; UniProt P01270 32-65, looked up, fragment)”, for which the axial trabecular bone result is on record as “considerable increase”; the “calcium retention, and hence total bone mass” value was “improved in only about half of these patients”.
